Like-named read-outs stand apart in the source and are kept apart here.
Assays:
Hep G 2.2.15 cells = assay: in vitro; format: cell-based; settings: MTT, day 3 post-dosing
Method: (§1) Hep G 2.2.15 cells were inoculated in a 96-well plate (with cell number being 5.5×10^4) to continually cultivate for 3 days, new culture solutions containing different concentrations of drugs were added, and 3 wells were provided in parallel; at day 3 post-dosing, MTT was added until 7.5 mg/ml, and continued to cultivate for 2 hours, the supernate was discarded, isopropanol containing 10% […] was added, 120 μl/well, and 0.4 μl/well was further added.

[1] = tested on: liver damage in mice caused by D-aminogalactose; format: in vivo, Kunmin mice; settings: serum, D-aminogalactose 750 mg/kg model, 0.2 mmol oral twice, 24 hours after second administration
Method: Kunmin mice (20 g) were grouped randomly (8/group). 0.2 mmol of a compound to be tested was orally administered; after 2 hours post-dosing, D-aminogalactose was intraperitoneally injected at a dose of 750 mg/kg to prepare a liver damage model, and the normal saline was subcutaneously injected as a normal control group. After modeling for 12 hours, 0.2 mmol of the compound to be tested was orally administrated again. After 24 hours from the second administration, blood samples were collected to take serum specimen so as to determine ALT, AST.

[2] = tested on: liver damage in mice caused by CCl4; format: in vivo, Kunmin mice; settings: serum, CCl4 model, 0.2 mmol oral twice, 24 hours after second administration
Method: Kunmin mice (20 g) were grouped randomly (8/group). 0.2 mmol of a compound to be tested was orally administered; after 1 hour post-dosing, a 0.1% peanut oil solution of CCl4 was subcutaneously injected (10 mL/kg), to prepare a liver damage model; the normal saline was injected as a normal control group. After modeling for 12 hours, 0.2 mmol of the compound to be tested was orally administrated again. After 24 hours from the second administration, blood samples were collected to take serum specimen so as to determine ALT, AST.

[3] = Kamiya et al. 2002; read-out: cytotoxicity CC50; cited from earlier work
HBV = assay: microbe, parasite or virus in culture; format: cell-based; settings: Hep G 2.2.15 cells, HBV DNA in supernate at day 10 post-dosing, read-out: IC50
Method: At day 10 post-dosing, 100 μl supernate was taken and the content of HBV DNA was measured by the method of Quantitative PCR to calculate IC50 value.

DHBV = assay: animal or person; format: in vivo, sheldrakes; settings: serum DHBV DNA; for inhibition in vivo at 1 mg/kg / inhibition in vivo at 0.5 mg/kg: Duck hepatitis B virus, po, 336 h; for inhibition in vivo at 1 mg/kg: 1.0 mg/kg intragastric once a day for 14 days; for inhibition in vivo at 0.5 mg/kg: 0.5 mg/kg intragastric once a day for 14 days
Method: The sheldrakes infected by vertical transmission and being positive in DHBV DNA detection were grouped randomly, 5/group. Water and different doses of the compound to be tested were intragastrically administrated, respectively, once a day, for 14 days. Venous blood samples were collected pre-dosing, at day 14 of dosing and at day 7 after drug withdrawal, the serum DHBV DNA content was measured using external standard TaqMan real-time fluorescence PCR method, and the inhibition ratio was calculated, as compared to the solvent group.

[4] = Evaluation of liver targeting property (active drug in liver and blood, HPLC-MS/MS); format: in vivo, Balb/C mice; settings: intragastric, dose equimolar to fosfomycin 200 mg/kg, active drug (free phosphonic or phosphoric acid)
Excerpt: Instrument: Finnigan Co. USA, TSQ Quantum-type liquid chromatography-mass spectrometry (LC/MS/MS), consisting of Finnigan Surveyor LC pump. Surveyor AS automatic sampler, electrospray ionization source (ESI) and triple tandem mass spectrometer. The control software is X calibur 1.4, Lcquan 2.0 data processing system is used for mass spectrometry data analysis. The chromatography column is Discovery ODS column (250 mm×4.6 mm, 5 μm), C18 guard column (4 mm×3.0 mm), the mobile phase is methanol-water-formic acid (10-30:90-70:0.5, V/V/V), the flow rate is 0.7 ml/min; the sample amount is 20 μL; and the column temperature is room temperature.

in vitro = format: cell-based; settings: human; Hep G 2.2.15 cells, MTT, day 3 post-dosing
Method: as §1

[5] = after MCC-478, phase I clinical trial, Chan et al. 2005; cited from earlier work
[6] = 25 mg/kg intragastric once a day for 14 days
[7] = read-out: Inhibition ratio (%) Day 14 of dosing
[8] = read-out: Inhibition ratio (%) day 7 after drug withdrawal
[9] = Hepatitis B virus, HepG2.2.15, 240 h
[10] = 10 mg/kg intragastric once a day for 14 days

In the case of “(benzo[1,3]dioxolan-5-yl) [5-[2-amino-5-(2-methylpropyl)-thiazol-4-yl]-furan-2-yl]-phosphonate-(1-isopropoxycarbonylethylamino)-phosphonamide [Compound I43]”, the CC50 (Hep G 2.2.15 cells) is reported as greater than 200000 nM, the ALT [1] is reported as 256 U/L and the AST [1] is reported as 517 U/L. For the same compound, the ALT [2] was 507 U/L and the AST [2] was 280 U/L.

In the case of `COc1ccc(Sc2nc(N)nc3c2ncn3CCOCP(=O)(O)OCC(F)(F)F)cc1` [Compound 602074], the CC50 [3] is given as 548000 nM.

`CC(C)OC(=O)[C@H](C)N[P@](=O)(CO[C@H](C)Cn1cnc2c(N)ncnc21)Oc1ccccc1.O=C(O)/C=C/C(=O)O` [GS-7340, 9-[(R)-2-[[(S)-[[(S)-1-(isopropoxycarbonyl)-ethyl]-amino]-phenoxylphosphonyl]-methoxyl]-propyl]-adenine fumarate, reference compound] gave a CC50 (Hep G 2.2.15 cells) of 94200 nM, an IC50 (HBV) of 71 nM and an ALT [1] of 1064 U/L. The AST [1] was 1320 U/L, the ALT [2] was 2483 U/L and the AST [2] was 2645 U/L.

In the case of `CC(C)OC(=O)[C@H](C)N[P@@](=O)(CO[C@H](C)Cn1cnc2c(N)ncnc21)Oc1ccc2c(c1)OCO2` [Compound I21-a], the “Inhibition ratio (%) Day 14 of dosing” value (DHBV; [6]) is reported as 70.8%, the “Inhibition ratio (%) day 7 after drug withdrawal” value (DHBV; [6]) is reported as 25.0% and the Cliver/Cblood ([4]; 1 h post-dosing) is reported as 8.45. The Cliver/Cblood ([4]; 6 h post-dosing) was 12.02, the IC50 (HBV) was 150 nM and the ALT [1] was 379 U/L. It also gave an AST [1] of 169 U/L, an ALT [2] of 353 U/L and an AST [2] of 191 U/L.

For `C=C1[C@H](CO[P@@](=O)(N[C@@H](C)C(=O)OC(C)C)Oc2ccccc2)[C@@H](O)C[C@@H]1n1cnc2c(=O)[nH]c(N)nc21` [i-5, 2-amino-1,9-dihydro-9-[(1S,3R,4S)-4-hydroxyl-3-((S)—((S)-1-isopropoxycarbonylethylamino-phenoxy-phosphoryl)-oxymethyl)-2-methylenecyclopentyl]-6H-purin-6-one, reference compound], the CC50 (in vitro) was 193000 nM, the inhibition in vivo at 1 mg/kg (DHBV; [7]) was 88.9% and the inhibition in vivo at 1 mg/kg (DHBV; [8]) was 15.7%. For the same compound, the IC50 (HBV; [9]) was 12 nM, the ALT [1] was 1512 U/L and the AST [1] was 1646 U/L. It also gave an ALT [2] of 551 U/L and an AST [2] of 641 U/L.

In the case of `CC(C)OC(=O)C(C)NP(=O)(OCCOCn1cnc2c(=O)[nH]c(N)nc21)Oc1ccc2c(c1)OCO2` (stereo not shown) [Compound I27], the CC50 (Hep G 2.2.15 cells) is reported as greater than 200000 nM, the “Inhibition ratio (%) Day 14 of dosing” value (DHBV; [10]) is reported as 80.6% and the “Inhibition ratio (%) day 7 after drug withdrawal” value (DHBV; [10]) is reported as 10.5%. The Cliver/Cblood ([4]; 1 h post-dosing) was 11.75, the Cliver/Cblood ([4]; 6 h post-dosing) was 8.02 and the IC50 (HBV) was 35 nM. The ALT [1] was 713 U/L, the AST [1] was 522 U/L and the ALT [2] was 663 U/L. The AST [2] was 940 U/L.

In the case of `COc1ccc(Sc2nc(N)nc3c2ncn3CCOCP(=O)(O)O)cc1` [Compound 602076], the “blood concentration relative to that of the monoester 602074” value [5] is given as “one tenth”.

In the case of `COC(=O)C(C)NP(=O)(OCCOCn1cnc2c(=O)[nH]c(N)nc21)Oc1ccc2c(c1)OCO2` (stereo not shown) [Compound I41], the CC50 (Hep G 2.2.15 cells) is reported as greater than 200000 nM, the “Inhibition ratio (%) Day 14 of dosing” value (DHBV; [10]) is reported as 72.5% and the “Inhibition ratio (%) day 7 after drug withdrawal” value (DHBV; [10]) is reported as 15.7%.

In the case of `CC(C)OC(=O)[C@H](C)N[P@](=O)(CO[C@H](C)Cn1cnc2c(N)ncnc21)Oc1ccc2c(c1)OCO2` [Compound I21-b], the “Inhibition ratio (%) Day 14 of dosing” value (DHBV; [6]) is reported as 82.3%, the “Inhibition ratio (%) day 7 after drug withdrawal” value (DHBV; [6]) is reported as 39.2% and the Cliver/Cblood ([4]; 1 h post-dosing) is reported as 9.15. It also gave a Cliver/Cblood ([4]; 6 h post-dosing) of 14.37, an IC50 (HBV) of 12 nM and an ALT [1] of 514 U/L. The AST [1] was 268 U/L, the ALT [2] was 251 U/L and the AST [2] was 152 U/L.

`CC(NP(=O)(OCCOCn1cnc2c(=O)[nH]c(N)nc21)Oc1ccc2c(c1)OCO2)C(=O)OC1CCCCC1` (stereo not shown) [Compound I28] showed a CC50 (Hep G 2.2.15 cells) greater than 200000 nM.

Work on `C=C1[C@H](CO[P@@](=O)(N[C@@H](C)C(=O)OC(C)C)Oc2ccc3c(c2)OCO3)[C@@H](O)C[C@@H]1n1cnc2c(=O)[nH]c(N)nc21` [Compound I38-b] yielded a CC50 (in vitro) greater than 200000 nM, an inhibition in vivo at 0.5 mg/kg (DHBV; [7]) of 96.4% and an inhibition in vivo at 0.5 mg/kg (DHBV; [8]) of 63.4%. The IC50 (HBV; [9]) was 90 nM, the ALT [1] was 217 U/L and the AST [1] was 493 U/L. The ALT [2] was 162 U/L and the AST [2] was 387 U/L.

Source: patent publication US20160115186A1, “PHOSPHORIC ACID/PHOSPHONIC ACID DERIVATIVES AND MEDICINAL USES THEREOF” (priority 2013, published 2016)
